Source: ChEMBL document CHEMBL1201862, “PubChem BioAssay data set” (2004)
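Growth conditions: 96-well plates. Treatment: test compound, 48 hours, 5 concentrations. Analysis: linear interpolation between bracketing concentrations; unreached endpoints set to highest concentration. GI50 is the concentration that inhibits growth by half.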 Activity calls are given as the source filed them. Rule as the data show it: active = GI50 up to about 1.1 µM and inactive = higher.

Tests used:
Test in all cases: NCI-60 cell line screen, 48 h
[1] = system: 786-0
[2] = system: COLO 205
[3] = system: EKVX
[4] = system: IGROV-1
[5] = system: KM12
[6] = system: LOX IMVI
[7] = system: MDA-N
[8] = system: MOLT-4
[9] = system: Malme-3M
[10] = system: NCI-H522
[11] = system: OVCAR-4
[12] = system: RPMI-8226
[13] = system: SK-MEL-5
[14] = system: SNB-19
[15] = system: SR
[16] = system: T47D
[17] = system: CCRF-CEM
[18] = system: HCC 2998
[19] = system: NCI-H460

Measured: GI50

O=C(O)C/C(=C\c1ccco1)C(=O)O
inactive: [1] > 100 µM | [2] > 100 µM | [3] > 100 µM | [4] > 100 µM | [5] > 100 µM | [6] > 100 µM | [7] > 100 µM | [8] > 100 µM | [9] > 100 µM | [10] > 100 µM | [11] > 100 µM | [12] > 100 µM | [13] > 100 µM | [14] > 100 µM | [15] > 100 µM | [16] > 100 µM

Oc1c(/N=N\c2ccccc2)c2cccc3ccc4cccc1c4c32
inactive: [1] 43.7 µM | [17] > 100 µM | [2] > 100 µM | [3] > 100 µM | [4] > 100 µM | [5] > 100 µM | [6] > 100 µM | [7] > 100 µM | [8] > 100 µM | [9] > 100 µM | [10] > 100 µM | [11] 43.2 µM | [12] > 100 µM | [13] > 100 µM | [14] > 100 µM | [15] 20.9 µM | [16] > 100 µM

CC(=O)NCC1OC2COC(c3ccccc3)OC2C(NC(=O)c2ccccc2)C1OC(=O)c1ccccc1 (stereo not drawn)
inactive: [1] > 100 µM | [17] > 100 µM | [2] > 100 µM | [3] > 100 µM | [18] > 100 µM | [5] > 100 µM | [6] > 100 µM | [7] > 100 µM | [8] 86.7 µM | [9] > 100 µM | [19] > 100 µM | [11] > 100 µM | [13] > 100 µM | [14] > 100 µM | [16] 34.5 µM

CN1N=C(c2ccncc2)OC1c1cccc(C(F)(F)F)c1 (stereo not drawn)
inactive: [1] > 100 µM | [17] > 100 µM | [2] > 100 µM | [3] > 100 µM | [18] > 100 µM | [4] > 100 µM | [5] > 100 µM | [6] > 100 µM | [7] > 100 µM | [8] > 100 µM | [19] > 100 µM | [10] > 100 µM | [11] > 100 µM | [12] > 100 µM | [13] > 100 µM | [14] > 100 µM | [16] 96.6 µM

COc1cc(C)c(/C=C/C(=O)N2C(=O)OC[C@@H]2c2ccccc2)c(C)c1
inactive: [1] > 100 µM | [17] 61.8 µM | [2] > 100 µM | [3] 98.9 µM | [18] 73.1 µM | [4] > 100 µM | [5] 61.9 µM | [6] > 100 µM | [7] > 100 µM | [8] 31.1 µM | [9] > 100 µM | [10] > 100 µM | [11] 81.3 µM | [12] 48.3 µM | [13] 60.8 µM | [14] > 100 µM | [16] 23.2 µM

COC(=O)NC(C(F)(F)F)(C(F)(F)F)P1(=O)OCCCO1
inactive: [1] 36.9 µM | [17] 12.6 µM | [2] 23 µM | [4] 22.3 µM | [5] 22.8 µM | [6] 16.4 µM | [7] 23.2 µM | [8] 17.1 µM | [19] 30.2 µM | [10] 14.5 µM | [11] 32.6 µM | [12] 18.1 µM | [13] 17.6 µM | [14] 25.5 µM | [15] 20.7 µM | [16] 20.4 µM

N#CCN(CC#N)C1CC=CCC1N(CC#N)CC#N (stereo not drawn)
inactive: [1] > 100 µM | [17] > 100 µM | [2] > 100 µM | [3] > 100 µM | [4] > 100 µM | [5] > 100 µM | [6] > 100 µM | [7] > 100 µM | [8] > 100 µM | [9] > 100 µM | [19] > 100 µM | [10] > 100 µM | [11] > 100 µM | [12] > 100 µM | [13] > 100 µM | [14] > 100 µM | [16] > 100 µM

O=C1Nc2ccccc2S/C1=C\c1ccc(C(F)(F)F)cc1
inactive: [1] > 100 µM | [2] > 100 µM | [3] 55.1 µM | [4] > 100 µM | [5] > 100 µM | [6] > 100 µM | [7] > 100 µM | [8] > 100 µM | [9] > 100 µM | [19] > 100 µM | [10] > 100 µM | [11] > 100 µM | [12] > 100 µM | [13] > 100 µM | [14] > 100 µM | [15] > 100 µM | [16] > 100 µM

CCc1n[nH]c(=O)n1O
inactive: [1] > 100 µM | [17] > 100 µM | [2] > 100 µM | [3] > 100 µM | [4] > 100 µM | [5] > 100 µM | [7] > 100 µM | [8] > 100 µM | [9] > 100 µM | [10] > 100 µM | [11] > 100 µM | [13] > 100 µM | [14] > 100 µM | [15] > 100 µM | [16] > 100 µM

COC(=NCCC1=CCCCC1)OC
inactive: [1] 81.3 µM | [17] 8.71 µM | [2] 16.3 µM | [3] 69 µM | [18] 22 µM | [4] 32.8 µM | [5] 78.9 µM | [7] 95.3 µM | [8] 52.2 µM | [9] 31.2 µM | [19] 57.1 µM | [10] 32.4 µM | [11] > 100 µM | [12] 32.1 µM | [13] 34.4 µM | [14] > 100 µM | [16] 32.9 µM

CN(C)c1ccc(/C=C2\N=C(N/N=C/c3ccc(N(C)C)cc3)NC2=O)cc1
inactive: [1] > 100 µM | [17] 27.5 µM | [2] 22.8 µM | [3] > 100 µM | [18] > 100 µM | [4] 38.7 µM | [5] 61.1 µM | [7] > 100 µM | [8] 92 µM | [9] > 100 µM | [19] 51.5 µM | [10] 47.9 µM | [11] > 100 µM | [12] 76.6 µM | [13] 44.4 µM | [14] > 100 µM | [16] 16.7 µM

CNC(=O)c1cc(NC(=O)N(CCC#N)CCN(C(=O)N[C@@H](Cc2ccccc2)C(=O)N[C@@H](CC(C)C)C(=O)NC)c2ccccc2)ccc1OC
inactive: [1] > 55.2 µM | [17] > 66.1 µM | [2] > 100 µM | [3] > 100 µM | [4] 24.4 µM | [5] > 62.1 µM | [6] 49.3 µM | [7] > 100 µM | [8] 49.4 µM | [9] 17.3 µM | [19] 15.8 µM | [11] > 100 µM | [12] 56.8 µM | [13] 29.9 µM | [14] > 59.2 µM | [15] 21 µM | [16] > 47.6 µM
